In PubChem BioAssay AID1963832 (Molecular Pharmacology Branch, DTP, NCI, 2024):

Test system: 885724-159-R-J1-PDC complex spheroid viability
Assay: Anticancer human tumor 885724-159-R-J1-PDC patient-derived pancreatic adenocarcinoma cell line growth inhibition [POLQ]
Details: for IC50: curve of first compound; for viability, T/C: stronger effect = lower value
How it was run: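 Growth inhibition in 3D: complex spheroids (tumor PDC, HUVEC, MSC) treated with POLQ inhibitor combinations; where Cmax unknown, highest tested concentration 10 microM, except SN-38 at 1 microM.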

[1] = second compound 0.0316 µM, first compound 0.0316 µM
[2] = second compound 0.0316 µM, first compound 0.1 µM
[3] = second compound 0.0316 µM, first compound 0.316 µM
[4] = second compound 0.0316 µM, first compound 1 µM
[5] = second compound 0.0316 µM, first compound 3.16 µM
[6] = second compound 0.0316 µM, first compound 10 µM
[7] = second compound 0.1 µM, first compound 0.0316 µM
[8] = second compound 0.1 µM, first compound 0.1 µM
[9] = second compound 0.1 µM, first compound 0.316 µM
[10] = second compound 0.1 µM, first compound 1 µM
[11] = second compound 0.1 µM, first compound 3.16 µM
[12] = second compound 0.1 µM, first compound 10 µM
[13] = second compound 0.316 µM, first compound 0.0316 µM
[14] = second compound 0.316 µM, first compound 0.1 µM
[15] = second compound 0.316 µM, first compound 0.316 µM
[16] = second compound 0.316 µM, first compound 1 µM
[17] = second compound 0.316 µM, first compound 3.16 µM
[18] = second compound 0.316 µM, first compound 10 µM
[19] = second compound 1 µM, first compound 0.0316 µM
[20] = second compound 1 µM, first compound 0.1 µM
[21] = second compound 1 µM, first compound 0.316 µM
[22] = second compound 1 µM, first compound 1 µM
[23] = second compound 1 µM, first compound 3.16 µM
[24] = second compound 1 µM, first compound 10 µM
[25] = second compound 3.16 µM, first compound 0.0316 µM
[26] = second compound 3.16 µM, first compound 0.1 µM
[27] = second compound 3.16 µM, first compound 0.316 µM
[28] = second compound 3.16 µM, first compound 1 µM
[29] = second compound 3.16 µM, first compound 3.16 µM
[30] = second compound 3.16 µM, first compound 10 µM
[31] = second compound 10 µM, first compound 0.0316 µM
[32] = second compound 10 µM, first compound 0.1 µM
[33] = second compound 10 µM, first compound 0.316 µM
[34] = second compound 10 µM, first compound 1 µM
[35] = second compound 10 µM, first compound 3.16 µM
[36] = second compound 10 µM, first compound 10 µM
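Note: spheroids exposed to compounds for 7 days.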

Question: With `CCc1cc2c(N3CCc4c(cc(Cn5ccnc5)cc4-c4cn(C)nc4C(F)(F)F)C3=O)cc(C)nc2c(OC)n1` + COC1C(OC(N)=O)C(O)C(Oc2ccc3c(O)c(NC(=O)c4ccc(O)c(CC=C(C)C)c4)c(=O)oc3c2C)OC1(C)C as the molecule, how does the IC50 (second compound 0.0316 µM) read?
Answer: > 10 µM

Question: What about the IC50 (second compound 0.1 µM) of the same molecule?
Answer: > 10 µM

Question: And the IC50 (second compound 0.316 µM)?
Answer: > 10 µM

Question: And the IC50 (second compound 1 µM)?
Answer: > 10 µM

Question: What about the IC50 (second compound 3.16 µM) of the same molecule?
Answer: > 10 µM

Question: And the IC50 (second compound 10 µM)?
Answer: > 10 µM

Question: And the viability, T/C [1]?
Answer: 87.4%

Question: What about the viability, T/C [2] of the same molecule?
Answer: 79.7%

Question: What about the viability, T/C [3] of the same molecule?
Answer: 75.3%

Question: And the viability, T/C [4]?
Answer: 68.9%

Question: What about the viability, T/C [5] of the same molecule?
Answer: 84.7%

Question: What about the viability, T/C [6] of the same molecule?
Answer: 66.2%

Question: What about the viability, T/C [7] of the same molecule?
Answer: 89%

Question: And the viability, T/C [8]?
Answer: 78.6%

Question: And the viability, T/C [9]?
Answer: 77%

Question: And the viability, T/C [10]?
Answer: 77.1%

Question: What about the viability, T/C [11] of the same molecule?
Answer: 69.7%

Question: What about the viability, T/C [12] of the same molecule?
Answer: 70.4%

Question: What about the viability, T/C [13] of the same molecule?
Answer: 88.7%

Question: What about the viability, T/C [14] of the same molecule?
Answer: 71.8%

Question: And the viability, T/C [15]?
Answer: 90.4%

Question: What about the viability, T/C [16] of the same molecule?
Answer: 75.4%

Question: And the viability, T/C [17]?
Answer: 79.2%

Question: What about the viability, T/C [18] of the same molecule?
Answer: 67.6%

Question: What about the viability, T/C [19] of the same molecule?
Answer: 80%

Question: And the viability, T/C [20]?
Answer: 73.5%

Question: And the viability, T/C [21]?
Answer: 79.9%

Question: And the viability, T/C [22]?
Answer: 82.5%

Question: What about the viability, T/C [23] of the same molecule?
Answer: 74.5%

Question: What about the viability, T/C [24] of the same molecule?
Answer: 71.9%

Question: What about the viability, T/C [25] of the same molecule?
Answer: 80.3%

Question: And the viability, T/C [26]?
Answer: 72.9%

Question: What about the viability, T/C [27] of the same molecule?
Answer: 82.6%

Question: And the viability, T/C [28]?
Answer: 76.7%

Question: What about the viability, T/C [29] of the same molecule?
Answer: 80.1%

Question: And the viability, T/C [30]?
Answer: 75.2%

Question: And the viability, T/C [31]?
Answer: 78.4%

Question: And the viability, T/C [32]?
Answer: 80.9%

Question: And the viability, T/C [33]?
Answer: 77.2%

Question: What about the viability, T/C [34] of the same molecule?
Answer: 75.1%

Question: What about the viability, T/C [35] of the same molecule?
Answer: 75.9%

Question: And the viability, T/C [36]?
Answer: 72%

Question: What does the source list for `CCc1cc2c(N3CCc4c(cc(Cn5ccnc5)cc4-c4cn(C)nc4C(F)(F)F)C3=O)ccnc2c(OC)n1` + COC1C(OC(N)=O)C(O)C(Oc2ccc3c(O)c(NC(=O)c4ccc(O)c(CC=C(C)C)c4)c(=O)oc3c2C)OC1(C)C?
Answer: IC50 (second compound 0.0316 µM): > 10 µM; IC50 (second compound 0.1 µM): > 10 µM; IC50 (second compound 0.316 µM): > 10 µM; IC50 (second compound 1 µM): > 10 µM; IC50 (second compound 3.16 µM): > 10 µM; IC50 (second compound 10 µM): > 10 µM; viability, T/C [1]: 90.9%; viability, T/C [2]: 76.4%; viability, T/C [3]: 75.5%; viability, T/C [4]: 75%; viability, T/C [5]: 75%; viability, T/C [6]: 70.3%; viability, T/C [7]: 86.8%; viability, T/C [8]: 82.1%; viability, T/C [9]: 80.1%; viability, T/C [10]: 82.2%; viability, T/C [11]: 76.3%; viability, T/C [12]: 68.2%; viability, T/C [13]: 89.3%; viability, T/C [14]: 86.1%; viability, T/C [15]: 72.3%; viability, T/C [16]: 70.9%; viability, T/C [17]: 75.5%; viability, T/C [18]: 64.6%; viability, T/C [19]: 85.2%; viability, T/C [20]: 86%; viability, T/C [21]: 79.5%; viability, T/C [22]: 83.1%; viability, T/C [23]: 77%; viability, T/C [24]: 59.1%; viability, T/C [25]: 87.5%; viability, T/C [26]: 80.3%; viability, T/C [27]: 79.8%; viability, T/C [28]: 72.5%; viability, T/C [29]: 75.4%; viability, T/C [30]: 69.5%; viability, T/C [31]: 80.6%; viability, T/C [32]: 76.8%; viability, T/C [33]: 76.6%; viability, T/C [34]: 80.4%; viability, T/C [35]: 79.5%; viability, T/C [36]: 64.1%

Question: What does the source list for `COc1cc2cc(C(=O)CCC(=O)O)sc2cc1OC` + COC1C(OC(N)=O)C(O)C(Oc2ccc3c(O)c(NC(=O)c4ccc(O)c(CC=C(C)C)c4)c(=O)oc3c2C)OC1(C)C?
Answer: IC50 (second compound 0.0316 µM): > 10 µM; IC50 (second compound 0.1 µM): > 10 µM; IC50 (second compound 0.316 µM): > 10 µM; IC50 (second compound 1 µM): > 10 µM; IC50 (second compound 3.16 µM): > 10 µM; IC50 (second compound 10 µM): > 10 µM; viability, T/C [1]: 96.4%; viability, T/C [2]: 97.6%; viability, T/C [3]: 100%; viability, T/C [4]: 93.6%; viability, T/C [5]: 96.8%; viability, T/C [6]: 86.2%; viability, T/C [7]: 100%; viability, T/C [8]: 96.3%; viability, T/C [9]: 102%; viability, T/C [10]: 109%; viability, T/C [11]: 109%; viability, T/C [12]: 86.6%; viability, T/C [13]: 101%; viability, T/C [14]: 101%; viability, T/C [15]: 97.2%; viability, T/C [16]: 103%; viability, T/C [17]: 113%; viability, T/C [18]: 81%; viability, T/C [19]: 109%; viability, T/C [20]: 92.5%; viability, T/C [21]: 95.6%; viability, T/C [22]: 96%; viability, T/C [23]: 104%; viability, T/C [24]: 76.2%; viability, T/C [25]: 100%; viability, T/C [26]: 96.6%; viability, T/C [27]: 95.9%; viability, T/C [28]: 101%; viability, T/C [29]: 113%; viability, T/C [30]: 79.8%; viability, T/C [31]: 96.8%; viability, T/C [32]: 105%; viability, T/C [33]: 111%; viability, T/C [34]: 93.4%; viability, T/C [35]: 87.5%; viability, T/C [36]: 83.4%

Question: For `COc1ccc([C@@H](O)c2cc(-c3ncnc4cc(N5CCOCC5)ccc34)c(F)cc2Cl)nn1` + COC1C(OC(N)=O)C(O)C(Oc2ccc3c(O)c(NC(=O)c4ccc(O)c(CC=C(C)C)c4)c(=O)oc3c2C)OC1(C)C, which IC50 (second compound 0.0316 µM) is on record?
Answer: 3.45 µM

Question: And the IC50 (second compound 0.1 µM)?
Answer: 4.09 µM

Question: And the IC50 (second compound 0.316 µM)?
Answer: 4.05 µM

Question: And the IC50 (second compound 1 µM)?
Answer: 4.77 µM

Question: What about the IC50 (second compound 3.16 µM) of the same molecule?
Answer: 3.15 µM

Question: What about the IC50 (second compound 10 µM) of the same molecule?
Answer: 3.75 µM

Question: And the viability, T/C [1]?
Answer: 95.4%

Question: What about the viability, T/C [2] of the same molecule?
Answer: 85.4%

Question: What about the viability, T/C [3] of the same molecule?
Answer: 76.3%

Question: And the viability, T/C [4]?
Answer: 65.5%

Question: What about the viability, T/C [5] of the same molecule?
Answer: 53.4%

Question: And the viability, T/C [6]?
Answer: 33.4%

Question: What about the viability, T/C [7] of the same molecule?
Answer: 104%

Question: And the viability, T/C [8]?
Answer: 104%

Question: What about the viability, T/C [9] of the same molecule?
Answer: 81.9%

Question: What about the viability, T/C [10] of the same molecule?
Answer: 71.2%

Question: And the viability, T/C [11]?
Answer: 56.7%

Question: And the viability, T/C [12]?
Answer: 33.8%

Question: And the viability, T/C [13]?
Answer: 100%

Question: And the viability, T/C [14]?
Answer: 93.3%

Question: And the viability, T/C [15]?
Answer: 86.6%

Question: What about the viability, T/C [16] of the same molecule?
Answer: 73.7%

Question: And the viability, T/C [17]?
Answer: 54.2%

Question: And the viability, T/C [18]?
Answer: 32.8%

Question: And the viability, T/C [19]?
Answer: 94.2%

Question: And the viability, T/C [20]?
Answer: 81.4%

Question: What about the viability, T/C [21] of the same molecule?
Answer: 90%

Question: And the viability, T/C [22]?
Answer: 66.8%

Question: And the viability, T/C [23]?
Answer: 61.9%

Question: And the viability, T/C [24]?
Answer: 34.3%

Question: What about the viability, T/C [25] of the same molecule?
Answer: 89.9%

Question: And the viability, T/C [26]?
Answer: 81.3%

Question: What about the viability, T/C [27] of the same molecule?
Answer: 97.2%

Question: What about the viability, T/C [28] of the same molecule?
Answer: 68.4%

Question: And the viability, T/C [29]?
Answer: 52.5%

Question: And the viability, T/C [30]?
Answer: 31.8%

Question: What about the viability, T/C [31] of the same molecule?
Answer: 108%

Question: What about the viability, T/C [32] of the same molecule?
Answer: 86.9%

Question: What about the viability, T/C [33] of the same molecule?
Answer: 87.5%

Question: What about the viability, T/C [34] of the same molecule?
Answer: 69.1%

Question: And the viability, T/C [35]?
Answer: 55.5%

Question: What about the viability, T/C [36] of the same molecule?
Answer: 31.5%
